Patent US20050004126A1 (priority 2001, published 2005)

target: MMP-13CD (catalytic domain of collagenase 3) (Homo sapiens, UniProt P45452); experiment: Thiopeptolide hydrolysis assay, MMP-13; conditions: IC50 μM, Table V; MMP-13;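 note: inhibition of enzymatic thiopeptolide substrate cleavage (100 µM) in pH 6.0 MES buffer with CaCl2 and DTNB, comparing hydrolysis with versus without inhibitor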

Structure (SMILES)	IC50 [µM]
O=C(O)c1ccc(Cn2c(=O)c3cc(C(=O)NCc4ccc(F)cc4)ccc3n3cnnc23)cc1 [4-{7-[(4-Fluoro)-benzylcarbamoyl]-5-oxo-5H-[1,2,4]triazolo[4,3-a]quinazol-4-ylmethyl}benzoic acid]	0.0011
COC(=O)c1ccc(Cn2c(=O)c3cc(C(=O)NCc4ccc5c(c4)OCO5)ccc3n3cnnc23)cc1 [Methyl 4-{7-[(1,3-benzodioxol-5-ylmethyl)-carbamoyl]-5-oxo-5H-[1,2,4]triazolo[4,3-a]quinazol-4-ylmethyl}benzoate]	0.0011
COc1ccc(CNC(=O)c2ccc3c(c2)c(=O)n(Cc2ccc(C(=O)N(C)C)cc2)c2nncn32)cc1 [4-(4-Dimethylcarbamoyl-benzyl)-5-oxo-4,5-dihydro-[1,2,4]triazolo[4,3-a]quinazoline-7-carboxylic acid 4-methoxy-benzylamide]	0.0087
COC(=O)Cc1ccc(Cn2c(=O)c3cc(C(=O)NCc4ccncc4)ccc3n3cnnc23)cc1 [Methyl (4-{7-[(pyridin-4-yl)-methylcarbamoyl]-5-oxo-5H-[1,2,4]triazolo[4,3-a]quinazolin-4-ylmethyl}-phenyl)-acetate]	0.013
N#Cc1ccc(Cn2c(=O)c3cc(C(=O)NCc4ccc5c(c4)OCO5)ccc3n3cnnc23)cc1 [Synthesis Example 58, N-(3,4-Methylenedioxybenzyl)-4-(4-cyanobenzyl)-5-oxo-4H-[1,2,4]triazolo[4,3-a]quinazol-7-ylcarboxamide]	0.0023
O=C(NCc1ccncc1)c1ccc2c(c1)c(=O)n(Cc1ccccc1)c1nccn21 [4-Benzyl-5-oxo-4,5-dihydro-imidazo[1,2-a]quinazoline-7-carboxylic acid (pyridin-4-ylmethyl)-amide]	2.1
O=C(O)Cc1ccc(Cn2c(=O)c3cc(C(=O)NCc4ccncc4)ccc3n3cnnc23)cc1 [(4-{7-[(Pyridin-4-yl)-methylcarbamoyl]-5-oxo-5H-[1,2,4]triazolo[4,3-a]quinazolin-4-ylmethyl}-phenyl)-acetic acid]	0.0062
O=C(OCc1ccncc1)c1ccc2c(c1)c(=O)n(Cc1ccccc1)c1nncn21 [Synthesis Example 56, 4-Pyridylmethyl 4-benzyl-5-oxo-4H-[1,2,4]triazolo[4,3-a]quinazol-7-yl-carboxylate]	0.0023

same assay, conditions: IC50 μM, Table VII; MMP-13

Structure (SMILES)	IC50 [µM]
Cn1c(=O)n(Cc2ccc(C(=O)O)cc2)c(=O)c2cc(C#CCc3ccccc3)ncc21 [Synthesis Example 69, 4-[1-Methyl-2,4-dioxo-6-(3-phenyl-prop-1-ynyl)-1,4-dihydro-2H-pyrido[3,4-d]pyrimidin-3-ylmethyl]-benzoic acid]	0.0065
COc1ccc(CC#Cc2cc3c(=O)n(Cc4ccc(C(=O)O)cc4)c(=O)n(C)c3cn2)cc1 [Synthesis Example 70, 4-{6-[3-(4-Methoxy-phenyl)-prop-1-ynyl]-1-methyl-2,4-dioxo-1,4-dihydro-2H-pyrido[3,4-d]pyrimidin-3-ylmethyl}-benzoic acid]	0.0012
COc1ccc(CC#Cc2ccc3c(c2)c(=O)n(Cc2ccc(C(=O)O)cc2)c(=O)n3C)cc1 [Synthesis Example 68, 4-{6-[3-(4-Methoxy-phenyl)-prop-1-ynyl]-1-methyl-2,4-dioxo-1,4-dihydro-2H-quinazolin-3-ylmethyl}-benzoic acid]	0.0006

same assay, conditions: MMP 13 IC50 μM, Table III

Structure (SMILES)	IC50 [µM]
COC(=O)CCCCn1c(=O)c2cc(C(=O)OCc3ccccc3)sc2n(C)c1=O	0.15

same assay, conditions: MMP13 IC50 μM, Table IVb

Structure (SMILES)	IC50 [µM]
COc1ccc(CNC(=O)c2ccc3c(c2)c(=O)n(Cc2ccc(NS(C)(=O)=O)cc2)c(=O)n3C)cc1	0.004
COc1ccc(CNC(=O)c2ccc3c(c2)c(=O)n(Cc2ccc(C(=O)O)c(O)c2)c(=O)n3C)cc1	0.0016
CC(c1cccc2ccccc12)n1c(=O)c2cc(C(=O)NCc3ccc4c(c3)OCO4)ccc2n(C)c1=O (centres unmarked)	9.4
Cn1c(=O)n(CC=Cc2ccncc2)c(=O)c2cc(C(=O)NCc3ccncc3)ccc21	0.24
COc1ccc(CNC(=O)c2ccc3c(c2)c(=O)n(CCOc2ccc(F)cc2)c(=O)n3C)cc1	0.15
CCN(CC)c1ccc(C(=O)Cn2c(=O)c3cc(C(=O)NCc4ccc(OC)cc4)ccc3n(C)c2=O)cc1	3.64
COc1ccc(CNC(=O)c2ccc3c(c2)c(=O)n(Cc2ccc(C(=O)OCCN(C)C)cc2)c(=O)n3C)cc1	0.037
CCn1c(=O)n(Cc2ccc(C(=O)OC)cc2)c(=O)c2cc(C(=O)NCc3ccc(OC(F)(F)F)cc3)ccc21	0.34
COc1ccc(CNC(=O)c2ccc3c(c2)c(=O)n(Cc2ccc(-c4nnn(C)n4)cc2)c(=O)n3C)cc1	0.004
COC(=O)c1ccc(Cn2c(=O)c3cc(C(=O)NCc4ccc(OC)cc4)ccc3n(C)c2=O)cc1O	0.0043
COc1ccc(CNC(=O)c2ccc3c(c2)c(=O)n(Cc2ccc(NC(=O)OC(C)(C)C)nc2)c(=O)n3C)cc1	0.015
COc1ccc(CNC(=O)c2ccc3c(c2)c(=O)n(Cc2ccc4nonc4c2)c(=O)n3C)cc1	0.018
COc1ccc(CNC(=O)c2ccc3c(c2)c(=O)n(Cc2ccc(C(=O)O)s2)c(=O)n3C)cc1	0.0084
COc1cccc(CNC(=O)c2cc3c(=O)n(Cc4ccc(C(=O)O)cc4)c(=O)n(C)c3cn2)c1	0.0011
COc1ccc(CNC(=O)c2ccc3c(c2)c(=O)n(CCS(=O)(=O)c2ccccc2)c(=O)n3C)cc1	0.84
Cn1c(=O)n(Cc2ccc(F)c(F)c2)c(=O)c2cc(C(=O)NCc3cccnc3)ccc21	0.067
Cn1c(=O)n(Cc2ccccc2)c(=O)c2cc(C(=O)NCCCSc3ccncc3)ccc21	0.026
COc1ccc(CNC(=O)c2ccc3c(c2)c(=O)n(Cc2ccc(-c4nc(C)no4)cc2)c(=O)n3C)cc1	0.0029
COc1ccc(CNC(=O)c2ccc3c(c2)c(=O)n(Cc2cccc(C(=O)O)c2)c(=O)n3C)cc1	0.018
COc1ccc(CNC(=O)c2ccc3c(c2)c(=O)n(Cc2ccc(S(C)(=O)=O)cc2)c(=O)n3C)cc1	0.0125
Cn1c(=O)n(Cc2cccc(F)c2)c(=O)c2cc(C(=O)NCc3cccnc3)ccc21	0.067
CCOC(=O)c1ccc(Cn2c(=O)c3cc(C(=O)NCc4ccc(OC)cc4)ccc3n(C)c2=O)cc1F	0.009
COc1ccc(CNC(=O)c2ccc3c(c2)c(=O)n(Cc2ccc(Br)cc2)c(=O)n3C)cc1	0.013
COC(=O)c1ccc(Cn2c(=O)c3cc(C(=O)NCc4ccncc4)ccc3n(C)c2=O)cc1	0.023

Structure (SMILES)	IC50 [µM]
COc1ccc(CNC(=O)c2ccc3c(c2)c(=O)n(CCN2CCOCC2)c(=O)n3C)cc1	9.3
COc1ccc(CNC(=O)c2ccc3c(c2)c(=O)n(Cc2ccc(N)cc2)c(=O)n3C)cc1	0.0093
CCn1c(=O)n(Cc2cccc(F)c2)c(=O)c2cc(C(=O)NCc3cccnc3)ccc21	0.36
COC(=O)c1ccccc1-c1ccc(Cn2c(=O)c3cc(C(=O)NCc4ccc(OC)cc4)ccc3n(C)c2=O)cc1	0.084
COC(=O)c1ccc(Cn2c(=O)c3cc(C(=O)NCc4ccc(OC)cc4)ccc3n(C)c2=O)cc1OC	0.05
COC(=O)c1ccc(Cn2c(=O)[nH]c3ccc(C(=O)NCc4ccc(OC)cc4)cc3c2=O)cc1	0.009
COc1ccc(CNC(=O)c2cnc3c(c2)c(=O)n(Cc2ccc(C#N)cc2)c(=O)n3C)cc1 [3-(4-Cyano-benzyl)-1-methyl-2,4-dioxo-1,2,3,4-tetrahydro-pyrido[2,3-d] pyrimidine-6-carboxylic acid 4-methoxy-benzylamide]	0.016
COc1cccc(CNC(=O)c2ccc3c(c2)c(=O)n(Cc2cccc(F)c2)c(=O)n3C)c1	0.021
Cn1c(=O)n(Cc2ccccc2)c(=O)c2cc(C(=O)CSc3ccncc3)ccc21	3.4
COc1ccc(CNC(=O)c2ccc3c(c2)c(=O)n(Cc2ccc(C(=O)O)c(Cl)c2)c(=O)n3C)cc1	0.004
COc1ccc(CNC(=O)c2ccc3c(c2)c(=O)n(Cc2ccc(F)cc2)c(=O)n3C)cc1	0.0145
Cn1c(=O)n(Cc2ccc(F)cc2)c(=O)c2cc(C(=O)NCc3cccnc3)ccc21	0.12
COc1ccc(CNC(=O)c2ccc3c(c2)c(=O)n(Cc2ccc(CC(=O)O)cc2)c(=O)n3C)cc1	0.0022
Cn1c(=O)n(Cc2ccccc2)c(=O)c2cc(C(=O)NCc3ccc(C#N)cc3)ccc21	0.34
COc1ccc(CNC(=O)c2ccc3c(c2)c(=O)n(Cc2ccc(C(=O)OCCN(C)C)c(C)c2)c(=O)n3C)cc1	0.11
C=CCn1c(=O)c2cc(C(=O)NCc3ccc(OC)cc3)ccc2n(C)c1=O	1.01
COc1ccc(CNC(=O)c2cnc3c(c2)c(=O)n(Cc2ccc(C(=O)O)cc2)c(=O)n3C)cc1 [4-[6-(4-Methoxy-benzylcarbamoyl)-1-methyl-2,4-dioxo-1,4-dihydro-2H-pyrido[2,3-d]pyrimidin-3-ylmethyl]-benzoic acid]	0.0016
Cn1c(=O)n(Cc2ccc(C#N)cc2)c(=O)c2cc(C(=O)NCc3ccncc3)ccc21	0.053
COc1ccc(CNC(=O)c2cc3c(=O)n(Cc4ccc(C#N)cc4)c(=O)n(C)c3cn2)cc1	0.0011
CNC(=O)c1ccc(Cn2c(=O)c3cc(C(=O)NCc4ccc(OC)cc4)ccc3n(C)c2=O)cc1	0.0064
Cn1c(=O)n(Cc2ccc(Cl)cc2)c(=O)c2cc(C(=O)NCc3cccnc3)ccc21	0.093
CCn1c(=O)n(Cc2ccc(C(=O)O)cc2)c(=O)c2cc(C(=O)NCc3ccc(OC)cc3)ccc21	0.003
CCOC(=O)CCCn1c(=O)c2cc(C(=O)NCc3ccc(OC)cc3)ccc2n(C)c1=O	2.55
COC(=O)c1ccc(Cn2c(=O)c3cc(C(=O)NCc4ccc(F)cc4)ccc3n(C)c2=O)cc1	0.01

same assay, conditions: MMP13 IC50 (nM), Table II

Structure (SMILES)	IC50 [µM]
O=C(OCc1ccccc1)c1cc(C(=O)OCc2ccccc2)cc([N+](=O)[O-])c1 [5-Nitro-isophthalic acid dibenzyl ester]	1.5
O=C(OCc1ccc2c(c1)OCO2)c1cccc(C(=O)OCc2ccc3c(c2)OCO3)c1 [Isophthalic acid bis-(1,3-benzodioxol-5-ylmethyl) ester]	0.66
CCOc1ccc(C(=O)NCc2cccc(OC)c2)cc1C(=O)NCc1cccc(OC)c1	1.83

same assay, conditions: MMP13 IC50 (μM), Table 1b

Structure (SMILES)	IC50 [µM]
CCC(C)n1c(=O)c(C)c2sc(C(=O)NCc3ccc(F)cc3)cn2c1=O (centres unmarked)	0.4

same assay, conditions: read-out: MMP 13 IC50 μM; Table III

Structure (SMILES)	IC50 [µM]
COc1cccc(CNC(=O)c2cc3c(=O)n(Cc4ccc(OC(C)(C)C(=O)O)cc4)c(=O)n(C)c3s2)c1	0.0185
